The source made the active and inactive calls. Some results are limits rather than exact numbers.

In one data set the test system is Escherichia coli. Put plainly: microbe, parasite or virus in culture.
Data set [1] has as its target T1, G-protein coupled receptor 35 (Homo sapiens, UniProt Q9HC97). The experiment in a line: SAR analysis of Agonists of the GPR35 Receptor using an Image-Based Assay - Set 4. [Related pubchem assays (depositor defined):AID2013, AID2026]. The class given is functional.
Data set [2] addresses T2, Cannabinoid receptor 1 (Homo sapiens, UniProt P21554). Put plainly: SAR analysis of agonists of the Cannabinoid Receptor 1 using an Image-Based Assay - Set 4. [Related pubchem assays (depositor defined):AID2013, AID2026]. The class given is functional.
Data set [3] addresses T1, G-protein coupled receptor 35. Put plainly: SAR analysis of Antagonists of the GPR35 Receptor using an Image-Based Assay - Set 6. [Related pubchem assays (depositor defined):AID2013, AID2026]. The class given is functional.
In data set [4] the target is T2, Cannabinoid receptor 1. The experiment in a line: SAR analysis of antagonists of the Cannabinoid Receptor 1 using an Image-Based Assay - Set 4. [Related pubchem assays (depositor defined):AID2013, AID2026]. The class given is functional.
Data set [5] deals with G-protein coupled receptor 55 (Homo sapiens, UniProt Q9Y2T6). Put plainly: SAR Analysis of Selective Antagonists of GPR55 using an Image-Based Assay - Set 4. [Related pubchem assays (depositor defined):AID2013, AID2026]. Type of data set: functional.
Data set [6] deals with T3, Cannabinoid receptor 2 (Homo sapiens, UniProt P34972). The experiment in a line: SAR analysis of antagonists of the Cannabinoid Receptor 2 using an Image-Based Assay - Set 3. [Related pubchem assays (depositor defined):AID2013, AID2026]. Type of data set: functional.
The target in data set [7] is T3, Cannabinoid receptor 2. The experiment in a line: SAR analysis of agonists of the Cannabinoid Receptor 2 using an Image-Based Assay - Set 3. [Related pubchem assays (depositor defined):AID2013, AID2026]. Type of data set: functional.
Data set [8] has as its target Alkaline phosphatase, placental type (Homo sapiens, UniProt P05187). The experiment in a line: human placental alkaline phosphatase inhibition – biochemical, luminescence, confirmation (AID 1512). Type of data set: functional.
Data set [9] in a line: Trypanosoma cruzi growth suppression in host cells – NIH3T3 host cells, beta-gal luminescence, confirmation (AID 2044).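 Note: intracellular parasites grown in NIH/3T3 mouse fibroblasts as host cells; luminescent beta-galactosidase reporter signal from transgenic T. cruzi replicating inside host cells; inhibitors lower the luminescence signal.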 Type of data set: functional, cell-based.
Data set [10] is described as follows: NIH3T3 cell viability loss – ATP luminescence, mouse fibroblasts, counter-screen, dose response (AID 2010).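 Note: cells exposed to compound for about 90 hours before reading.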 The class given is functional, cell-based.
For data set [11], the target named is T4, Voltage-gated N-type calcium channel alpha-1B subunit/Amyloid beta A4 precursor protein-binding family A member 1 (Homo sapiens, UniProt Q00975+Q02410). Type of data set: protein assay.
Data set [12] addresses T4, Voltage-gated N-type calcium channel alpha-1B subunit/Amyloid beta A4 precursor protein-binding family A member 1. Type of data set: protein assay. The source holds these as a separate data set.
In data set [13] the target is Induced myeloid leukemia cell differentiation protein Mcl-1 (Homo sapiens, UniProt Q07820). The class given is functional.
In another data set the target is Cytochrome P450 2C9 (Homo sapiens, UniProt P11712).
The target of the next data set is Cytochrome P450 2D6 (Homo sapiens, UniProt P10635).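 Note: CYP2D6 member of a cytochrome P450 panel assay.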

T1 sequence (Q9HC97 whole entry): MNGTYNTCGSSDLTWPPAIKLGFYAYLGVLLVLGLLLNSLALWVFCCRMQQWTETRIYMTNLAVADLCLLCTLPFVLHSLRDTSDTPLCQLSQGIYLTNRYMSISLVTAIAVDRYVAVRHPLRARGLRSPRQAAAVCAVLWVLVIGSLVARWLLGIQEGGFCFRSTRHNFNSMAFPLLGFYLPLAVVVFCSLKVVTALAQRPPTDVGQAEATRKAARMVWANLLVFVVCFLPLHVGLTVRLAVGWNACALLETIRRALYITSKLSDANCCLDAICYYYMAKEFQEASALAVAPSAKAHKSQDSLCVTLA
Chain of G-protein coupled receptor 55 (Q9Y2T6 whole entry): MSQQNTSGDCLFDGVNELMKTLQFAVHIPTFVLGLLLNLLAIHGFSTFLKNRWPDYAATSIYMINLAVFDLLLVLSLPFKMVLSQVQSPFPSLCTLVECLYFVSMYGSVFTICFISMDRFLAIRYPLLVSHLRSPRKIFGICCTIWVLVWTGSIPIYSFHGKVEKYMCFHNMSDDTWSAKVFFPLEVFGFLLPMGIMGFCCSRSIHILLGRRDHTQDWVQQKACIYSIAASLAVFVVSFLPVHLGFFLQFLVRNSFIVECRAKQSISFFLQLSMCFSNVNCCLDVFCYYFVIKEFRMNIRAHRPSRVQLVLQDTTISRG
T2 sequence (P21554 whole entry): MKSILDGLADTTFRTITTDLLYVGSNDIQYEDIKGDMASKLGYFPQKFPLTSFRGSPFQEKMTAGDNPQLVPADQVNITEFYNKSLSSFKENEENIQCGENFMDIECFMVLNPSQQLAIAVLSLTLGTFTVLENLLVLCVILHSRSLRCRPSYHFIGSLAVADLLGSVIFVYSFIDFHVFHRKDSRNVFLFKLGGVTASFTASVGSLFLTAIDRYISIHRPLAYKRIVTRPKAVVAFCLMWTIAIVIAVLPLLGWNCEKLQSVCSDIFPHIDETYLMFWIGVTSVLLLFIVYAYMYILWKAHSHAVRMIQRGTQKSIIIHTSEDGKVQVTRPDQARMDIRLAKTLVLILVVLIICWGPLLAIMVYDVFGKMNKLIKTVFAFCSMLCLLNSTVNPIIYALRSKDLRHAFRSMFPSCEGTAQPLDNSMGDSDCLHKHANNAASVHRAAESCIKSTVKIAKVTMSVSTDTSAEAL
T3 sequence (P34972 whole entry): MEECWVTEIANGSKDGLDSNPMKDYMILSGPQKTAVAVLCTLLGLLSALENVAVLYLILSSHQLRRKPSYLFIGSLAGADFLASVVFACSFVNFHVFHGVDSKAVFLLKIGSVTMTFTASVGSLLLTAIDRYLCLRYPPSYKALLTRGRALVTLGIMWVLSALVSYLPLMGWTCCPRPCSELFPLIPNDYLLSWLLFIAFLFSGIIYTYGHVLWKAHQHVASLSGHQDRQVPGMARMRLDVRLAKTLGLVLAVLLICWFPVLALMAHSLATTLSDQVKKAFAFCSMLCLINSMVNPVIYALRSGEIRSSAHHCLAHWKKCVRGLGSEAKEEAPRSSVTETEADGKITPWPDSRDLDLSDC
T4 sequence (Q00975 whole entry): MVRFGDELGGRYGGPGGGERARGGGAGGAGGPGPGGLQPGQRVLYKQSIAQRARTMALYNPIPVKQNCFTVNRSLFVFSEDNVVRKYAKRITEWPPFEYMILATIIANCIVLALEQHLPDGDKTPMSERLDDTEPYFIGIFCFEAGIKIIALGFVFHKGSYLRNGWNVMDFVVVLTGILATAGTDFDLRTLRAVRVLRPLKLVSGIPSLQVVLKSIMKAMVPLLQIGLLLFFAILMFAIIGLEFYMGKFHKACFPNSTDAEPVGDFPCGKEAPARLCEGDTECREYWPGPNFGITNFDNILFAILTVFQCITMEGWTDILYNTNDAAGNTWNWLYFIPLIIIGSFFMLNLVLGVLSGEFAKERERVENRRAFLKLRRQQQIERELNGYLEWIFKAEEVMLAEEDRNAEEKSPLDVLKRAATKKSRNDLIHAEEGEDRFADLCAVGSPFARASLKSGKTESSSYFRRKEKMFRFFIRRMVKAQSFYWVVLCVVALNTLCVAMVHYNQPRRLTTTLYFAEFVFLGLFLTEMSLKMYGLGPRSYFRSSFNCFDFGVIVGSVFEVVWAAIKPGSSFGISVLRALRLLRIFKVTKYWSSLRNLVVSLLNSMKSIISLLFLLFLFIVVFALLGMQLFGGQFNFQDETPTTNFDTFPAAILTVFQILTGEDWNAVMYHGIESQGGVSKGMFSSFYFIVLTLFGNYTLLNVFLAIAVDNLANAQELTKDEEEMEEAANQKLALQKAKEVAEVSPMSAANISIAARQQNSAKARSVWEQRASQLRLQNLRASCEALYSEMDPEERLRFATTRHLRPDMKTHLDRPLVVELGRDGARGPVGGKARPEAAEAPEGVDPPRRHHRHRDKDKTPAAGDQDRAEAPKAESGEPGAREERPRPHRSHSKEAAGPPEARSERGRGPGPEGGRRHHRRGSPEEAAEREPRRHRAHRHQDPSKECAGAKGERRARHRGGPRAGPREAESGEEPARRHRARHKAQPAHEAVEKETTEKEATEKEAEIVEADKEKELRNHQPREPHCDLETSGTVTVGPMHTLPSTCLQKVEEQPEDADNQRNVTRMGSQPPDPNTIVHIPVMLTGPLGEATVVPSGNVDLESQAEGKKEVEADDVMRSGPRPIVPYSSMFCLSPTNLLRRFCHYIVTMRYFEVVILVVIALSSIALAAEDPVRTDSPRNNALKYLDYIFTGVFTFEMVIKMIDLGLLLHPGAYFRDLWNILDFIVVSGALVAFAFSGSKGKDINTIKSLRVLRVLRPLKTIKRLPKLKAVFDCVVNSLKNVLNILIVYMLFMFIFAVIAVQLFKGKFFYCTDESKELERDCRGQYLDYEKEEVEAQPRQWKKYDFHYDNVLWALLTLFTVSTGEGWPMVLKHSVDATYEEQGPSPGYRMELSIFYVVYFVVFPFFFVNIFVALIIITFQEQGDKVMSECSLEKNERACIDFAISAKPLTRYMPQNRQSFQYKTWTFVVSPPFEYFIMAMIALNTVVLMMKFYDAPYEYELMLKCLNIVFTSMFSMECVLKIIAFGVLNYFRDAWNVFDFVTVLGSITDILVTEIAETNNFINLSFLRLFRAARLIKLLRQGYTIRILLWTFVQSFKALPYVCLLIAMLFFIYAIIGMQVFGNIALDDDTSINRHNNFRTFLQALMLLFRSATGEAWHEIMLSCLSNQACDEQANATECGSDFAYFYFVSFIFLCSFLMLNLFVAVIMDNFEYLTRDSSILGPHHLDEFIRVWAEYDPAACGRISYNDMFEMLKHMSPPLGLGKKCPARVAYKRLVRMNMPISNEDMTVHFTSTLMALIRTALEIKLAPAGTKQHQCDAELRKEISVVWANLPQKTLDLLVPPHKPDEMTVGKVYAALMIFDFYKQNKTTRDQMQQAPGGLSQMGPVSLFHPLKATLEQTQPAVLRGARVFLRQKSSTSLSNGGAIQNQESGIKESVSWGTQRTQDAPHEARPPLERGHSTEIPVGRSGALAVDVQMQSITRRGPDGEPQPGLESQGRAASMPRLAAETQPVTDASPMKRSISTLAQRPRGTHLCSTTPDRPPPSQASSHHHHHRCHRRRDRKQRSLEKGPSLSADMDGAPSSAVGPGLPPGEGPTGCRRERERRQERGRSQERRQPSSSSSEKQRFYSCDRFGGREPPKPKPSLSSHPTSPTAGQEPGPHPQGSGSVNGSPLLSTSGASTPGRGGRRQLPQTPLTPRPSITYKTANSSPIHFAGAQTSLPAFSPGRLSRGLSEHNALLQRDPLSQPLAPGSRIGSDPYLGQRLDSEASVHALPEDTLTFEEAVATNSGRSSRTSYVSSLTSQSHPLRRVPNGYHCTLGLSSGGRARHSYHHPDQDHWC
T4 sequence (Q02410 whole entry): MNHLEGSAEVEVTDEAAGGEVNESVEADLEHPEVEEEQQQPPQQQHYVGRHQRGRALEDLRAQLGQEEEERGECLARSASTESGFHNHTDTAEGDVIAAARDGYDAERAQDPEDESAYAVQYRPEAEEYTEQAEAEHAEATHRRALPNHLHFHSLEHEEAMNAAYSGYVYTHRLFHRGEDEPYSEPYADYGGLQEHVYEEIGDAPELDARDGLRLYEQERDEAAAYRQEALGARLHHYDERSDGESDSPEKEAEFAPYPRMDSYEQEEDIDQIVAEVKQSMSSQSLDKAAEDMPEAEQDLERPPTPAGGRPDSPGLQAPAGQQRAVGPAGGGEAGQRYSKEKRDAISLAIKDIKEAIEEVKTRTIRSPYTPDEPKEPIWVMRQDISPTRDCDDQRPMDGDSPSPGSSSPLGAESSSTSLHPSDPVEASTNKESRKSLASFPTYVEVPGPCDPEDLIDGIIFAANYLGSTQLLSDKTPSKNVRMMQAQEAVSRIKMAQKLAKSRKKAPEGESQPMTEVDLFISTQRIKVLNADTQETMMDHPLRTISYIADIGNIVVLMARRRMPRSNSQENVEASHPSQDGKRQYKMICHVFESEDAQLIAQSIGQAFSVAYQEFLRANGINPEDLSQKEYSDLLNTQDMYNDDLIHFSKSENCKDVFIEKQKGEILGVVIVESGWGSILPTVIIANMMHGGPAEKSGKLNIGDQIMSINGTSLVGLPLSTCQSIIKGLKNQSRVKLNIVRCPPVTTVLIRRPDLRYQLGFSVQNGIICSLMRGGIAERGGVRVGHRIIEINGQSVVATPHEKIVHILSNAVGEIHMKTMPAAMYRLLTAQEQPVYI
Chain of Induced myeloid leukemia cell differentiation protein Mcl-1 (Q07820 whole entry): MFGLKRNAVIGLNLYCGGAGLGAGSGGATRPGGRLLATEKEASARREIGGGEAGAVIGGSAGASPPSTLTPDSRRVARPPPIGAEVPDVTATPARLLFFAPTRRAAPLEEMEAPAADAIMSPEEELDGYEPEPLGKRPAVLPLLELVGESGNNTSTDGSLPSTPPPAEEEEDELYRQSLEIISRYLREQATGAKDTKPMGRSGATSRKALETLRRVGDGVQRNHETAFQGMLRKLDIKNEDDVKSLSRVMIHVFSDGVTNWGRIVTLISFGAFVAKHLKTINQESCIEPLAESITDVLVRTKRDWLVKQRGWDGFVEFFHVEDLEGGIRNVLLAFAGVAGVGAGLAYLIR

As for `Cc1nc(-c2cccc(S(=O)(=O)N3CCOCC3)c2)cs1`, the AC50 in the data set with Escherichia coli is 35.7 µM (active).

In the case of `CC(C)NC(=O)c1cc2c(=O)n3ccccc3nc2n(C2CCCC2)c1=N`, the EC50 in data set [1] is > 32 µM (inactive); on Cannabinoid receptor 1 [2] it was > 32 µM (inactive); at Cannabinoid receptor 2 [7], 9.06 µM (active). Also, the IC50 (in data set [3]; on Cannabinoid receptor 1 [4]; in data set [5]; on Cannabinoid receptor 2 [6]) was > 32 µM (inactive) throughout.

In the case of `Cn1cc(Br)c(C(=O)NNC(=O)c2cccc(Br)c2)n1`, the IC50 in data set [8] is > 100 µM (inactive).

For the compound `Clc1ccc(C2[C@H]3CN(Cc4cccnc4)[C@H](c4ccccc4)C34CC2(c2ccccc2)C4)cn1` (some centres not stated), the concentration giving a half-maximal response (EC50) in data set [9] was 1.61 µM (active); in [10], 9.94 µM (active). Besides, the half-maximal activity concentration (AC50) in the data set with Escherichia coli was 34.8 µM (active).

For the compound `Cc1nnc(-c2ccc(Cl)cc2)c2cn(-c3ccccc3)nc12`, the EC50 (in data set [1]; at Cannabinoid receptor 1 [2]; at Cannabinoid receptor 2 [7]) was > 32 µM (inactive) each time. The IC50 is > 32 µM (inactive) in [3], 3.58 µM (active) at Cannabinoid receptor 1 [4], 19.2 µM (inactive) in [5] and 19.5 µM (inactive) on Cannabinoid receptor 2 [6].

Regarding `CC(=O)Nc1ccc(C2=NN=C(Nc3cccc(S(=O)(=O)N(C)C)c3)SC2)cc1`, the values for the half-inhibitory concentration (IC50) in data set [11], in [12] and in data set [13] were 3.56 µM (active), > 50 µM (inactive) and 4.2 µM (active), respectively.

For `Cc1ccc(C)c(C(=O)C2=C(O)C(=O)N(Cc3cccnc3)C2c2cccnc2)c1` (configuration not stated), the concentration at half-maximal activity (AC50) at Cytochrome P450 2C9 is 3.16 µM (inconclusive); on Cytochrome P450 2D6, “inconclusive”.

Turning to `COc1ccc(-c2nnc(C)c3nn(-c4ccc(Cl)cc4)cc23)cc1`, the EC50 (in data set [1]; on Cannabinoid receptor 1 [2]; on Cannabinoid receptor 2 [7]) was > 32 µM (inactive) throughout. The IC50 in data set [3] was > 32 µM (inactive); at Cannabinoid receptor 1 [4], 1.47 µM (active); in data set [5], 3.56 µM (active); at Cannabinoid receptor 2 [6] it was 13.2 µM (inactive).

As for `CNC(=O)OCC[N+](C)(C)C`, the AC50 result on Cytochrome P450 2D6 is reported as “inconclusive”.

These data come from ChEMBL document CHEMBL1201862, “PubChem BioAssay data set” (2004).
